Test [1] has as its target T1, Acetylcholinesterase (Homo sapiens, UniProt P22303).
Description: Inhibition of acetylcholinesterase (AChE) of human erythrocytes
A further test has as its target Cholinesterase (Homo sapiens, UniProt P06276).
Test [2] deals with T1, Acetylcholinesterase. The source holds these as a separate data set.
Description: Inhibition constant determined against Acetylcholinesterase (AChE) receptor.

Here are results for nine compounds from ChEMBL document CHEMBL1131149, “Acetylcholinesterase noncovalent inhibitors based on a polyamine backbone for potential use against Alzheimer's disease” (J Med Chem, 1998).

T1 sequence (P22303 whole entry): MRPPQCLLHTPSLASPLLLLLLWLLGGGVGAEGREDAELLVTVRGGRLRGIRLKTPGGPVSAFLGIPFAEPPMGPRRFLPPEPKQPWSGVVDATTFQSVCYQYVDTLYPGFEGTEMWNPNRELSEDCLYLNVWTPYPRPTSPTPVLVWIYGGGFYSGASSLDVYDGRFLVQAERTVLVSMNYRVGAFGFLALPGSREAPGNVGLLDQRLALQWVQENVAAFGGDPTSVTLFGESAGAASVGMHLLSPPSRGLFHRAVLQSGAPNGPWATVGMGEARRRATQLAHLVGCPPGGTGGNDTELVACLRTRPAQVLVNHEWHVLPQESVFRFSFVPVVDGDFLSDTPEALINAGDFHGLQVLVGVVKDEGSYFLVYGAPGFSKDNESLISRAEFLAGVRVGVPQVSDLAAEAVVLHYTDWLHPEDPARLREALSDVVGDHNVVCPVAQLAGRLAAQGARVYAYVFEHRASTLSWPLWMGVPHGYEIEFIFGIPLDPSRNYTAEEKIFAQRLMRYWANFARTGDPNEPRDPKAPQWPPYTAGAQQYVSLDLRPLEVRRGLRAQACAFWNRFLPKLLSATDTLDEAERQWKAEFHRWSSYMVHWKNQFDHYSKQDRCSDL
Chain of Cholinesterase (P06276 whole entry): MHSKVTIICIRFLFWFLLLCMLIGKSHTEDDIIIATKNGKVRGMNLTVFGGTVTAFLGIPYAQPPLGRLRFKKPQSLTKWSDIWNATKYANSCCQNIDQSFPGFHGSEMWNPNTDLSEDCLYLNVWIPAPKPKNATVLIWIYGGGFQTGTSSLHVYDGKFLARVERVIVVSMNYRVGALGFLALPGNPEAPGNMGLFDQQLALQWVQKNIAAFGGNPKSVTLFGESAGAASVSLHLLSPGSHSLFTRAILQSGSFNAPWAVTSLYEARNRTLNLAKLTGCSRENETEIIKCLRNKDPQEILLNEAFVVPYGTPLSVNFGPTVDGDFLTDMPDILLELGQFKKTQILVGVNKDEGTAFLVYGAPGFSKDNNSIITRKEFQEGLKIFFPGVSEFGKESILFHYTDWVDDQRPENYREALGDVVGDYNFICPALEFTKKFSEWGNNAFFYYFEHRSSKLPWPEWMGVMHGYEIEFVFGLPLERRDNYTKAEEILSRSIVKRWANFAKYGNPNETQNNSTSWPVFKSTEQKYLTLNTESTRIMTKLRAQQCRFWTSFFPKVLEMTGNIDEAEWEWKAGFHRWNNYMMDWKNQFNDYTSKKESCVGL

With `NCCCCCCNCCSSCCNCCCCCCN`, the results for the IC50 against Acetylcholinesterase [1] and against Cholinesterase were 501 µM and 646 µM, respectively.

With `COc1ccccc1CNCCCCCC(=O)N(C)CCCCCCCCN(C)C(=O)CCCCCNCc1ccccc1OC`, the IC50 against Acetylcholinesterase [1] is 0.309 µM; against Cholinesterase it was 6.03 µM.

Take `COc1ccccc1CNCCCCCCNCCCCCNCCCCCCNCc1ccccc1OC`: the IC50 against Acetylcholinesterase [1] is 7.24 µM; against Cholinesterase it was 8.71 µM.

`COc1ccccc1CNCCCCCC(=O)NCCCCCCCCNC(=O)CCCCCNCc1ccccc1OC`: the IC50 against Acetylcholinesterase [1] was 1.86 µM; against Cholinesterase it was 11.5 µM.

On to `COc1ccccc1CNCCCCCCNCCCCCCNCCCCCCNCc1ccccc1OC`, for which the IC50 against Acetylcholinesterase [1] is 6.46 µM; against Cholinesterase, 1.38 µM.

As for `COc1ccccc1CNCCCCCCNCCCCCCCNCCCCCCNCc1ccccc1OC`, half-maximal inhibition at Cholinesterase (IC50) was put at 3.72 µM.

`COc1ccccc1CNCCCCCCNCCSSCCNCCCCCCNCc1ccccc1OC` [BENEXTRAMINE]: the IC50 was 7.24 µM against Acetylcholinesterase [1] and 6.17 µM against Cholinesterase.

Turning to `COc1ccccc1CN(C)CCCCCC(=O)N(C)CCCCCCCCN(C)C(=O)CCCCCN(C)Cc1ccccc1OC` [CAPROCTAMINE], the IC50 on Acetylcholinesterase [1] is 0.17 µM; against Cholinesterase, 11.7 µM. The same compound returned a Ki at Acetylcholinesterase [2] of 0.000104 µM.

Turning to `COc1ccccc1CNCCCCCCNCCCCCCCCNCCCCCCNCc1ccccc1OC` [METHOCTRAMINE], the midpoint of inhibition at Cholinesterase, the IC50, lay at 0.977 µM.
